In PubChem BioAssay (NCI):
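Grown in 96-well plates, cells were treated for 48 hours with each compound at five concentrations. Insufficient inhibition: endpoint recorded as highest concentration tested. Here, GI50 denotes the concentration required for 50% inhibition of growth. TGI denotes the concentration required for complete inhibition of growth.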

How the values were obtained:
Experiment in all cases: NCI-60 cell line screen, 48 h
HS 578T breast = tested on: HS 578T breast
CAKI-1 renal = tested on: CAKI-1 renal
COLO 205 colon = tested on: COLO 205 colon
786-0 renal = tested on: 786-0 renal
SK-MEL-28 melanoma = tested on: SK-MEL-28 melanoma
SK-MEL-2 melanoma = tested on: SK-MEL-2 melanoma
CCRF-CEM leukemia = tested on: CCRF-CEM leukemia
K-562 leukemia = tested on: K-562 leukemia
BT-549 breast = tested on: BT-549 breast
HL-60(TB) leukemia = tested on: HL-60(TB) leukemia
HCT-15 colon = tested on: HCT-15 colon
SK-OV-3 ovarian = tested on: SK-OV-3 ovarian
HCC-2998 colon = tested on: HCC-2998 colon
ACHN renal = tested on: ACHN renal
UACC-62 melanoma = tested on: UACC-62 melanoma
T-47D breast = tested on: T-47D breast
MDA-MB-468 breast = tested on: MDA-MB-468 breast
UACC-257 melanoma = tested on: UACC-257 melanoma
OVCAR-5 ovarian = tested on: OVCAR-5 ovarian
SF-295 CNS = tested on: SF-295 CNS
SF-268 CNS = tested on: SF-268 CNS
MDA-MB-231 breast = tested on: MDA-MB-231 breast
PC-3 prostate = tested on: PC-3 prostate
MALME-3M melanoma = tested on: MALME-3M melanoma
IGROV1 ovarian = tested on: IGROV1 ovarian
TK-10 renal = tested on: TK-10 renal
OVCAR-3 ovarian = tested on: OVCAR-3 ovarian
NCI-H23 lung = tested on: NCI-H23 lung
HOP-92 NSCLC = tested on: HOP-92 NSCLC
A549 NSCLC = tested on: A549 NSCLC
HCT-116 colon = tested on: HCT-116 colon
NCI-H522 lung = tested on: NCI-H522 lung
NCI-H226 lung = tested on: NCI-H226 lung
OVCAR-4 ovarian = tested on: OVCAR-4 ovarian
RXF 393 renal = tested on: RXF 393 renal
DU-145 prostate = tested on: DU-145 prostate
OVCAR-8 ovarian = tested on: OVCAR-8 ovarian
SW-620 colon = tested on: SW-620 colon
RPMI-8226 leukemia = tested on: RPMI-8226 leukemia
U251 CNS = tested on: U251 CNS
KM12 colon = tested on: KM12 colon
SN12C renal = tested on: SN12C renal
A498 renal = tested on: A498 renal
HT29 colon = tested on: HT29 colon
MDA-MB-435 = tested on: MDA-MB-435
SNB-75 CNS = tested on: SNB-75 CNS
SF-539 CNS = tested on: SF-539 CNS
EKVX NSCLC = tested on: EKVX NSCLC
LOX IMVI melanoma = tested on: LOX IMVI melanoma
SK-MEL-5 melanoma = tested on: SK-MEL-5 melanoma
HOP-62 NSCLC = tested on: HOP-62 NSCLC
NCI-H460 lung = tested on: NCI-H460 lung
NCI/ADR-RES ovarian = tested on: NCI/ADR-RES ovarian
MCF7 breast = tested on: MCF7 breast
MOLT-4 leukemia = tested on: MOLT-4 leukemia
M14 melanoma = tested on: M14 melanoma
UO-31 renal = tested on: UO-31 renal
SNB-19 CNS = tested on: SNB-19 CNS
SR leukemia = tested on: SR leukemia

**Q.** Which results are given for `COc1cc(/C=C/C(=O)c2ccc(NC(=O)CN3C(=O)NC(C)(c4ccccc4)C3=O)cc2)cc(OC)c1OC` (stereo not drawn)?
**A.** GI50 (HS 578T breast): 32.6 µM; TGI (HS 578T breast): > 100 µM; GI50 (CAKI-1 renal): 8.66 µM; TGI (CAKI-1 renal): > 100 µM; GI50 (COLO 205 colon): 13.7 µM; TGI (COLO 205 colon): 30.4 µM; GI50 (786-0 renal): 8.43 µM; TGI (786-0 renal): 23.3 µM; GI50 (SK-MEL-28 melanoma): 14.6 µM; TGI (SK-MEL-28 melanoma): 32.1 µM; GI50 (SK-MEL-2 melanoma): 17.5 µM; TGI (SK-MEL-2 melanoma): 40.7 µM; GI50 (CCRF-CEM leukemia): 2.9 µM; TGI (CCRF-CEM leukemia): > 100 µM; GI50 (K-562 leukemia): 3.16 µM; TGI (K-562 leukemia): > 100 µM; GI50 (BT-549 breast): 4.73 µM; TGI (BT-549 breast): 21.2 µM; GI50 (HL-60(TB) leukemia): 2.26 µM; TGI (HL-60(TB) leukemia): 8.23 µM; GI50 (HCT-15 colon): 11.7 µM; TGI (HCT-15 colon): 48.9 µM; GI50 (SK-OV-3 ovarian): 37.4 µM; TGI (SK-OV-3 ovarian): > 100 µM; GI50 (HCC-2998 colon): 2.92 µM; TGI (HCC-2998 colon): 8.97 µM; GI50 (ACHN renal): 13.6 µM; TGI (ACHN renal): 46.7 µM; GI50 (UACC-62 melanoma): 11.7 µM; TGI (UACC-62 melanoma): 24.8 µM; GI50 (T-47D breast): 6.56 µM; TGI (T-47D breast): 69.9 µM; GI50 (MDA-MB-468 breast): 3.2 µM; TGI (MDA-MB-468 breast): 12.6 µM; GI50 (UACC-257 melanoma): 11.6 µM; TGI (UACC-257 melanoma): 28 µM; GI50 (OVCAR-5 ovarian): 10.5 µM; TGI (OVCAR-5 ovarian): 26.7 µM; GI50 (SF-295 CNS): 14.3 µM; TGI (SF-295 CNS): 31.8 µM; GI50 (SF-268 CNS): 8.39 µM; TGI (SF-268 CNS): 90.8 µM; GI50 (MDA-MB-231 breast): 4.52 µM; TGI (MDA-MB-231 breast): 25.4 µM; GI50 (PC-3 prostate): 10.8 µM; TGI (PC-3 prostate): > 100 µM; GI50 (MALME-3M melanoma): 14.6 µM; TGI (MALME-3M melanoma): 44.3 µM; GI50 (IGROV1 ovarian): 4.85 µM; TGI (IGROV1 ovarian): 25.2 µM; GI50 (TK-10 renal): 46.6 µM; TGI (TK-10 renal): > 100 µM; GI50 (OVCAR-3 ovarian): 4.16 µM; TGI (OVCAR-3 ovarian): 21 µM; GI50 (NCI-H23 lung): 4.61 µM; TGI (NCI-H23 lung): 19.4 µM; GI50 (HOP-92 NSCLC): 34 µM; TGI (HOP-92 NSCLC): > 100 µM; GI50 (A549 NSCLC): 4.53 µM; TGI (A549 NSCLC): > 100 µM; GI50 (HCT-116 colon): 2.27 µM; TGI (HCT-116 colon): 8.61 µM; GI50 (NCI-H522 lung): 9 µM; TGI (NCI-H522 lung): 23.7 µM; GI50 (NCI-H226 lung): 19.3 µM; TGI (NCI-H226 lung): > 100 µM; GI50 (OVCAR-4 ovarian): 13.4 µM; TGI (OVCAR-4 ovarian): > 100 µM; GI50 (RXF 393 renal): 3.01 µM; TGI (RXF 393 renal): 12.2 µM; GI50 (DU-145 prostate): 3.66 µM; TGI (DU-145 prostate): 15 µM; GI50 (OVCAR-8 ovarian): 5.03 µM; TGI (OVCAR-8 ovarian): > 100 µM; GI50 (SW-620 colon): 4.35 µM; TGI (SW-620 colon): 20.8 µM; GI50 (RPMI-8226 leukemia): 2.32 µM; TGI (RPMI-8226 leukemia): 10.2 µM; GI50 (U251 CNS): 2.7 µM; TGI (U251 CNS): 12.4 µM; GI50 (KM12 colon): 3.69 µM; TGI (KM12 colon): 17.8 µM; GI50 (SN12C renal): 12.9 µM; TGI (SN12C renal): 42 µM; GI50 (A498 renal): 31.6 µM; TGI (A498 renal): > 100 µM; GI50 (HT29 colon): 3.75 µM; TGI (HT29 colon): 13 µM; GI50 (MDA-MB-435): 3.64 µM; TGI (MDA-MB-435): 47.9 µM; GI50 (SNB-75 CNS): 5.33 µM; TGI (SNB-75 CNS): 84.5 µM; GI50 (SF-539 CNS): 2.23 µM; TGI (SF-539 CNS): 5.69 µM; GI50 (EKVX NSCLC): 12.9 µM; TGI (EKVX NSCLC): 75.8 µM; GI50 (LOX IMVI melanoma): 3.09 µM; TGI (LOX IMVI melanoma): 13.2 µM; GI50 (SK-MEL-5 melanoma): 9.99 µM; TGI (SK-MEL-5 melanoma): 21.5 µM; GI50 (HOP-62 NSCLC): 15.8 µM; TGI (HOP-62 NSCLC): 93.4 µM; GI50 (NCI-H460 lung): 3.93 µM; TGI (NCI-H460 lung): 22.7 µM; GI50 (NCI/ADR-RES ovarian): > 100 µM; TGI (NCI/ADR-RES ovarian): > 100 µM; GI50 (MCF7 breast): 3.06 µM; TGI (MCF7 breast): 13.5 µM; GI50 (MOLT-4 leukemia): 2.57 µM; TGI (MOLT-4 leukemia): 8.25 µM; GI50 (M14 melanoma): 6.67 µM; TGI (M14 melanoma): 22.9 µM; GI50 (UO-31 renal): 17.3 µM; TGI (UO-31 renal): 74.1 µM; GI50 (SNB-19 CNS): 14.9 µM; TGI (SNB-19 CNS): 32.9 µM; GI50 (SR leukemia): 1.93 µM; TGI (SR leukemia): > 100 µM
